Experiment [1] deals with T1, GST-CHK1 (Homo sapiens, UniProt O14757).
T1 construct: made in house
T1 sequence (O14757 1-476): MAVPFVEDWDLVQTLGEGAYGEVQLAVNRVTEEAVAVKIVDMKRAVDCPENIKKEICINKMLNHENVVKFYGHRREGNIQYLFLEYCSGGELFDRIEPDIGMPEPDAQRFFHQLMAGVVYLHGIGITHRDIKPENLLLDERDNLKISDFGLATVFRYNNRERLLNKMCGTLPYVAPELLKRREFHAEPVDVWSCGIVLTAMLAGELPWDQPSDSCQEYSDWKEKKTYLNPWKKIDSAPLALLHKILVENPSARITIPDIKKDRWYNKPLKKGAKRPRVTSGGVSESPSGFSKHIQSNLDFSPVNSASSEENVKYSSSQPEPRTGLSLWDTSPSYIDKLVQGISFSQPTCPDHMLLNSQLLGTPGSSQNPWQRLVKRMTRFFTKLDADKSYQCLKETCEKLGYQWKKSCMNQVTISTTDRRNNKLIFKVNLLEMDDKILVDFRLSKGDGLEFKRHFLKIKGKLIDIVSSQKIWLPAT
Briefly: GST-Chk1 activity assay. It counts as biochemical. The conditions noted are these: 10 μM cold ATP, GST-cdc25C substrate. As to the method:
To determine the effect of SCY on GST-Chk1 activity, the following assay was conducted. GST-Chk1 were expressed and purified using a method previously described in Jackson et al. (2000) Can. Res. 60:566-572, which is herein incorporated by reference. GST-Chk1 was purified to […] purity as determined via SDS-PAGE analysis. The remaining 30% was attributed to free GST. Flashplates were coated with 1 μg GST-cdc25C and 100 μM ATP at 4° C. The plates were washed twice with PBS, then 0.5 μCi [^33P]-γATP, 10 μM cold ATP, and 2 μg GST-CHK1, were added to the wells in kinase reaction buffer comprising 20 mM HEPES (pH 7.4), 50 mM KCl, 10 mM MgCl2, 1 mM EGTA, and 0.5 mM DTT. Activity was measured in the presence of scytonemin (SCY) in 100% DMSO yielding a 4% DMSO final concentration. Reactions were initiated by the addition of the enzyme, incubated at 37° C. for 30 minutes, and stopped by washing the plates five times with PBS. The amount of [^33P]-γATP incorporation was measured on a Packard Top-count.

Experiment [2] deals with rheumatoid synovial fibroblasts (RSFs). The experiment in a line: [3H]-thymidine incorporation assay, PDGF-BB stimulated rheumatoid synovial fibroblasts. The format is cell-based, human. The conditions noted are these: induced by platelet-derived growth factor (1 nM PDGF-BB); listed as SCY; read-out: IC50 rheumatoid synovial fibroblast proliferation. As to the method: To determine the effect of SCY on the proliferation of several cell types, proliferation was measured in response to growth factor or serum by tritiated thymidine uptake. Rheumatoid synovial fibroblasts (RSFs) obtained from Dr. Gene Mochan at PCOM (Philadelphia, Pa.), normal human lung fibroblasts (NHLFs) (Clonetics, San Diego, Calif.), human umbilical vein endothelial cells (HUVECs) (Clonetics, San Diego, Calif.), and Jurkat T cells (ATCC, Rockville, Md.) were plated in 96 well cell culture plates (Falcon, Franklin Lakes, N.J.). About 1.2×10^4 RSF cells/well and about 1×10^4 NHLF cells/well were plated in EMEM (Eagle's Minimum Essential Medium) (Sigma, St. Louis, Mo.) comprising 10 units penicillin-streptomycin (penstrep) (GibcoBRL, Grand Island, N.Y.) and 10% FBS. About 5×10^3 HUVEC cells/well were plated in CSC media (Cell Systems, Seattle, Wash.) with 10% FBS. Fibroblasts were allowed to adhere for about 6 to about 24 hours at 37° C., 5% CO2 and the media was changed to EMEM or CSC, 0.2% FBS and incubated for 24 hours. About 2×10^4 Jurkat T cells/well (ATCC, Rockville, Md.) were plated in RPMI (Gibco BRL, Grand Island, N.Y.), comprising 10% FBS and 10 units penstrep.
All cells were incubated with compound or vehicle (0.5% DMSO) for 15 minutes at room temperature. […] [^3H]-thymidine incorporation into the DNA was measured on a Packard Top-Count.

For experiment [3], the system named is LPS-stimulated monocytes. The experiment in a line: Proinflammatory mediator production in LPS-stimulated monocytes. It counts as cell-based.
For experiment [4], the target named is T2, GST-Tie2 (Homo sapiens, UniProt Q02763).
T2 construct: Each reaction comprised 5 μg GST-Tie2 (intracellular kinase domain); made in house; host or cells: baculovirus (pAcG1 vector)
Briefly: GST-Tie kinase activity assay. The format is biochemical. Here is the method:
To determine the effect of SCY on GST-Tie kinase activity, the following assay was conducted. Clones for the Tie2 receptor were obtained and submitted for confirmatory sequence analysis. Similar to the method described by Huang et al. (1995) Oncogene 11:2097-2103, which is herein incorporated by reference, GST fusion constructs using the human Tie kinase domains and the commercially available pAcG1 vector (Pharmigen, San Diego, Calif.) were constructed. […] The desired restriction fragment was recovered from a partial Tie2 cDNA clone and then subcloned directly into the EcoRI site of the commercially pAcG1 expression vector. These final constructs were transfected into the baculovirus and GST-Tie2 kinase was semipurified using a glutathione affinity column to greater than about 90% purity, as determined via SDS-PAGE analysis and Coomassie Blue staining.
The kinase assay is carried out in 96 well flashplates and in the same kinase buffer used in the PLK1 kinase assays. Each reaction comprised 5 μg GST-Tie2 (intracellular kinase domain), 1 μCi [^33P]-γATP, 30 μM cold ATP in 60 μl. Compounds were in DMSO to give a final concentration of 1% DMSO. The reaction was incubated for 2 hours at 30° C. and terminated by washing the plate five times with 10 μM cold ATP. Reactions were quantitated by using a Packard Top-Count.

A value given as a limit tells only on which side of the number the result lay.

T2 sequence (Q02763 824-1096 limits assumed): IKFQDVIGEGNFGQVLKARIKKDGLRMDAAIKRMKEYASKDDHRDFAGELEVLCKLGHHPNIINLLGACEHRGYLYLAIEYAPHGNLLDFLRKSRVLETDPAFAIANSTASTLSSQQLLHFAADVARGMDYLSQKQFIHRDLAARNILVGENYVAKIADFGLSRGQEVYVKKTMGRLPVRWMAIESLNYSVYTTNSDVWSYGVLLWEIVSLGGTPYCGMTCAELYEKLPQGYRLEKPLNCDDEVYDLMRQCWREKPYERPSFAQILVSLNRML

Take scytonemin: the IC50 in experiment [1] was around 1400 nM; in experiment [2], around 1500 nM; in experiment [4], above 10000 nM. Moreover, in experiment [3], the IL-1β production entry is recorded as “reduces”. The PGE2 production entry in experiment [3] is “reduces”. Besides, in experiment [3], the TNFα production result was “reduces”. For the same substance, the “concentration at which GST-Tie2 activity is significantly affected or inhibited” value in experiment [4] (30 μM cold ATP) is at least 10 µM.

(Values after patent publication US6495588B2, “Scytonemin and methods of using thereof” (The Regents of the University of California, priority 2000, dated 2002).)
